Measurements: ChEMBL document CHEMBL3991601, “The target landscape of clinical kinase drugs” (Science, 2017)
Calls of active or inactive are those of the source.
Note: in the data inactive means no Kd found up to 30 µM.

Each compound was assayed against T1, General transcription and DNA repair factor IIH helicase subunit XPD (Homo sapiens, UniProt P18074). Conditions: read-out: Kd apparent; k-562, colo 205, sk-n-be(2) and mv-4-11.
T1 sequence (P18074 whole entry): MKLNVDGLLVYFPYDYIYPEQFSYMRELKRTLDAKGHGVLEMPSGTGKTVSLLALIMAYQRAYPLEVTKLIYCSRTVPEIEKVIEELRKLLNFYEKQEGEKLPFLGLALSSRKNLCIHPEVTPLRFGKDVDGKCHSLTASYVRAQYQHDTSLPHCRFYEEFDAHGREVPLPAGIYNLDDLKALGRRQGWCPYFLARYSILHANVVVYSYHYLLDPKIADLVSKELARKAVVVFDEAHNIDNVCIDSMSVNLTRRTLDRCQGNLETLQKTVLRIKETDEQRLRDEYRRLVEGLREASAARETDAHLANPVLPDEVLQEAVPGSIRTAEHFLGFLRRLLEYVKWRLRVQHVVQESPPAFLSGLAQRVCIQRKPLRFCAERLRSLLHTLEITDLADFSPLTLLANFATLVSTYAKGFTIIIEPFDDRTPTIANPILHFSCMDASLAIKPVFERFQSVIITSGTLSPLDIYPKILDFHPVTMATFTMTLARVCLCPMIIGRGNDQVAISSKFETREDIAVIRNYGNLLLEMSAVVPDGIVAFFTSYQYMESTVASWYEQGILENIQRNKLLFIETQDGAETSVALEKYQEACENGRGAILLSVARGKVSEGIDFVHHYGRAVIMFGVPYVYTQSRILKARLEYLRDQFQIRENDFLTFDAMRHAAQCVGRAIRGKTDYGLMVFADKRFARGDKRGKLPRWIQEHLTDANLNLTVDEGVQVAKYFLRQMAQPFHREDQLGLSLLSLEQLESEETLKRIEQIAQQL
With N[C@@H]1CCCN(c2c(/C=C3\SC(=O)NC3=O)cccc2-c2ccccc2)C1 the Kd was > 30 µM (inactive). For Cc1ccc(S(=O)(=O)Nc2nc3ccccc3nc2Nc2ccc3nsnc3c2)cc1, the Kd was > 30 µM (inactive). In the case of Cc1cc(-c2cc(O)ccc2Cl)cc2nnc(Nc3ccc(OCCN4CCCC4)cc3)nc12, the Kd is reported as > 30 µM (inactive). With CCN1CCN(Cc2ccc(-c3cc4c(N[C@H](C)c5ccccc5)ncnc4[nH]3)cc2)CC1 [AEE-788] the Kd was > 30 µM (inactive).

What follows are compounds tested against Myosin light chain kinase, smooth muscle (Homo sapiens, UniProt Q15746). Conditions: not given.
Chain of Myosin light chain kinase, smooth muscle (Q15746 whole entry): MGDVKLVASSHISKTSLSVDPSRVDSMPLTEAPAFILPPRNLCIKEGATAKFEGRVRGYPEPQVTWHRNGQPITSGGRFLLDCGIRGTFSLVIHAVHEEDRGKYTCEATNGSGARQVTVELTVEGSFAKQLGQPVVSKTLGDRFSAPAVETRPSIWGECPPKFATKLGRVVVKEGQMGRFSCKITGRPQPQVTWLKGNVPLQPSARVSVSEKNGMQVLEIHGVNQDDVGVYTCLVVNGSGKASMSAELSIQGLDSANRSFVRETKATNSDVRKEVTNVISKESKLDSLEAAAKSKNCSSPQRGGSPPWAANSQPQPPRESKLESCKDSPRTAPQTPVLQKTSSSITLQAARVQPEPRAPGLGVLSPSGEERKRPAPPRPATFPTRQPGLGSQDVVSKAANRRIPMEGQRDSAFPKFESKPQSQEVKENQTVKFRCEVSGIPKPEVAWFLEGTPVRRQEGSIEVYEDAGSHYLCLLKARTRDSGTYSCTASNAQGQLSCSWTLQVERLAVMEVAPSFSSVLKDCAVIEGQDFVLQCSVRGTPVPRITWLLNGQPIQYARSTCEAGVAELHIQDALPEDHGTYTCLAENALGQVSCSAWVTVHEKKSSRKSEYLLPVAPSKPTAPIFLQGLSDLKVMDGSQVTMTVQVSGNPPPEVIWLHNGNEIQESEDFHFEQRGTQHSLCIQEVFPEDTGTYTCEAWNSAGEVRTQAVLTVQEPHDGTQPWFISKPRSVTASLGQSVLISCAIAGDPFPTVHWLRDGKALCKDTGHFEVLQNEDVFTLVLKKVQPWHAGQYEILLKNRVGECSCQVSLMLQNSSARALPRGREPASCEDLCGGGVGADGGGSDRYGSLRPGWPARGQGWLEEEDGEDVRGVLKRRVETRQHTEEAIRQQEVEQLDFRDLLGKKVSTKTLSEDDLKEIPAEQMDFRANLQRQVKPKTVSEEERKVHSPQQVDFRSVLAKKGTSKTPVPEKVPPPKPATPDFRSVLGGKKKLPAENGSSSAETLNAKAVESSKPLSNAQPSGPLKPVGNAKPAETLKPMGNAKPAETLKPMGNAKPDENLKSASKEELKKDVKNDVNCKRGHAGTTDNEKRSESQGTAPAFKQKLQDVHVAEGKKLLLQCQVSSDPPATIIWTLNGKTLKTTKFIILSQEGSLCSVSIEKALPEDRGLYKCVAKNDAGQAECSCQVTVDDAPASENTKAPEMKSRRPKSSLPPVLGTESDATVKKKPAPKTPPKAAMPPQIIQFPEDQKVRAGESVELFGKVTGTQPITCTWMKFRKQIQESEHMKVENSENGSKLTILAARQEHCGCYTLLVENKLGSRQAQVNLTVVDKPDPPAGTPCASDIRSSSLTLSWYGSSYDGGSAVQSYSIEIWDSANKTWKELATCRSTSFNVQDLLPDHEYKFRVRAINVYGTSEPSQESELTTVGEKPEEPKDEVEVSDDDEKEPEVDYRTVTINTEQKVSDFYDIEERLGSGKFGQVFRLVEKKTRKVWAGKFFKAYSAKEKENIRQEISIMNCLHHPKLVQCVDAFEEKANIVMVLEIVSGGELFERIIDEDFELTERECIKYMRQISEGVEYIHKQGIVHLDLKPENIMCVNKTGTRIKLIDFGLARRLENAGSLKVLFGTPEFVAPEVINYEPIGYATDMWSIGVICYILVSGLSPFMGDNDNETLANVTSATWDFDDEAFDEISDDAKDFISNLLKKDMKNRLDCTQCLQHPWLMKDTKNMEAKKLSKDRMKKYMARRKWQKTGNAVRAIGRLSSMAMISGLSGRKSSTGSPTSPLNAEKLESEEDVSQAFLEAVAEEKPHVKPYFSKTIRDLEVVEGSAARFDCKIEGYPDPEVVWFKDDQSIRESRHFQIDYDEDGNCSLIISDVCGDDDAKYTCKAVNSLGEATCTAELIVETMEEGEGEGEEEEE
For N[C@@H]1CCCN(c2c(/C=C3\SC(=O)NC3=O)cccc2-c2ccccc2)C1, the Kd was > 30 µM (inactive). In the case of Cc1ccc(S(=O)(=O)Nc2nc3ccccc3nc2Nc2ccc3nsnc3c2)cc1, the Kd is reported as > 30 µM (inactive). For Cc1cc(-c2cc(O)ccc2Cl)cc2nnc(Nc3ccc(OCCN4CCCC4)cc3)nc12, the Kd was > 30 µM (inactive). CCN1CCN(Cc2ccc(-c3cc4c(N[C@H](C)c5ccccc5)ncnc4[nH]3)cc2)CC1 [AEE-788] was tested, and the Kd was > 30 µM (inactive).

These compounds were tested against Bone morphogenetic protein receptor type-1B (Homo sapiens, UniProt O00238). Conditions: not given.
For N[C@@H]1CCCN(c2c(/C=C3\SC(=O)NC3=O)cccc2-c2ccccc2)C1, the Kd was > 30 µM (inactive). With Cc1ccc(S(=O)(=O)Nc2nc3ccccc3nc2Nc2ccc3nsnc3c2)cc1 the Kd was > 30 µM (inactive). With Cc1cc(-c2cc(O)ccc2Cl)cc2nnc(Nc3ccc(OCCN4CCCC4)cc3)nc12 the Kd was > 30 µM (inactive). CCN1CCN(Cc2ccc(-c3cc4c(N[C@H](C)c5ccccc5)ncnc4[nH]3)cc2)CC1 [AEE-788] was tested, and the Kd was > 30 µM (inactive).

The compounds below were run against Mitogen-activated protein kinase 1 (Homo sapiens, UniProt P28482). Conditions: not given.
For N[C@@H]1CCCN(c2c(/C=C3\SC(=O)NC3=O)cccc2-c2ccccc2)C1, the Kd was > 30 µM (inactive). Cc1ccc(S(=O)(=O)Nc2nc3ccccc3nc2Nc2ccc3nsnc3c2)cc1 was tested, and the Kd was > 30 µM (inactive). For Cc1cc(-c2cc(O)ccc2Cl)cc2nnc(Nc3ccc(OCCN4CCCC4)cc3)nc12, the Kd was > 30 µM (inactive). For CCN1CCN(Cc2ccc(-c3cc4c(N[C@H](C)c5ccccc5)ncnc4[nH]3)cc2)CC1 [AEE-788], the Kd was > 30 µM (inactive).

These compounds were tested against T2, Acyl-CoA dehydrogenase family member 11 (Homo sapiens, UniProt Q709F0). Conditions: not given.
T2 sequence (Q709F0 whole entry): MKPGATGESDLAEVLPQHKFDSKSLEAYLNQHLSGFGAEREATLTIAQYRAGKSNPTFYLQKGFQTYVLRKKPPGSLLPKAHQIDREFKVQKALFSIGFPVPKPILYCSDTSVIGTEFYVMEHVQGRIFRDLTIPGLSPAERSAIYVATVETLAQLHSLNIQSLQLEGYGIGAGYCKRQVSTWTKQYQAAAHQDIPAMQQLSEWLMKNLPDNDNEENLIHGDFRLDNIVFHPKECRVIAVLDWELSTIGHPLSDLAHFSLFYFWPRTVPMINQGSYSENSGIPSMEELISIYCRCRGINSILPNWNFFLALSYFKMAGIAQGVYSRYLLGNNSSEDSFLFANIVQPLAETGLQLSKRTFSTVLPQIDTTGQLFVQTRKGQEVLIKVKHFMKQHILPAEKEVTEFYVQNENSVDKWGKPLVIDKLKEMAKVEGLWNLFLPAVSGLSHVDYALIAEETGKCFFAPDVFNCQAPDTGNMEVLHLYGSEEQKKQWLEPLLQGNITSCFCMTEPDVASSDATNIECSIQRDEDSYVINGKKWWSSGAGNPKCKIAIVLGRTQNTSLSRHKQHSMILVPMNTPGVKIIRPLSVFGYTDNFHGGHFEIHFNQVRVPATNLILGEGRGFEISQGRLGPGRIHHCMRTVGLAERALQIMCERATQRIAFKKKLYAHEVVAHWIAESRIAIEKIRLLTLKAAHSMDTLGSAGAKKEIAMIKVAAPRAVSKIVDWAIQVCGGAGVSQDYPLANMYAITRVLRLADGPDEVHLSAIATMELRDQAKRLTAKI
In the case of N[C@@H]1CCCN(c2c(/C=C3\SC(=O)NC3=O)cccc2-c2ccccc2)C1, the Kd is reported as > 30 µM (inactive). In the case of Cc1ccc(S(=O)(=O)Nc2nc3ccccc3nc2Nc2ccc3nsnc3c2)cc1, the Kd is reported as > 30 µM (inactive). With Cc1cc(-c2cc(O)ccc2Cl)cc2nnc(Nc3ccc(OCCN4CCCC4)cc3)nc12 the Kd was > 30 µM (inactive). For CCN1CCN(Cc2ccc(-c3cc4c(N[C@H](C)c5ccccc5)ncnc4[nH]3)cc2)CC1 [AEE-788], the Kd was > 30 µM (inactive).

Each compound was assayed against T3, ATP-dependent RNA helicase DDX1 (Homo sapiens, UniProt Q92499). Conditions: not given.
T3 sequence (Q92499 whole entry): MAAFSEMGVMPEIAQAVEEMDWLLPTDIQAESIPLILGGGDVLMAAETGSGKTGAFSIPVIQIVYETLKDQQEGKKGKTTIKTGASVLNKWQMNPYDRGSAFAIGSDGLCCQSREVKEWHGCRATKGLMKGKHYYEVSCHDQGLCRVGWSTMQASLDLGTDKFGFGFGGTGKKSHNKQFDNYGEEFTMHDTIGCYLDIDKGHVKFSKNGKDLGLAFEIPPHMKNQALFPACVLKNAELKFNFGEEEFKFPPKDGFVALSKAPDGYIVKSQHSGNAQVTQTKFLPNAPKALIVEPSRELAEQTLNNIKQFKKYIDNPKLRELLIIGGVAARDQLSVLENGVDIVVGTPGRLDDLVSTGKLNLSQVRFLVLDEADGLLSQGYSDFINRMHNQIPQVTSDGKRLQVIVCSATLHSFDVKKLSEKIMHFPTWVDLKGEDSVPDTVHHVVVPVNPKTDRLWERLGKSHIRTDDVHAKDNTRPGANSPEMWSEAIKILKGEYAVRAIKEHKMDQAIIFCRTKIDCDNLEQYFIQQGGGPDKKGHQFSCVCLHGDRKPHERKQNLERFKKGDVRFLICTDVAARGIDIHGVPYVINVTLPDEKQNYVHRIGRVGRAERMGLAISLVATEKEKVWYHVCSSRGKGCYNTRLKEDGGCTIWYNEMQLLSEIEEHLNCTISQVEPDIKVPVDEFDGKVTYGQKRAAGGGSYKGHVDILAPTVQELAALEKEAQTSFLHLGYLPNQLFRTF
N[C@@H]1CCCN(c2c(/C=C3\SC(=O)NC3=O)cccc2-c2ccccc2)C1 was tested, and the Kd was > 30 µM (inactive). For Cc1ccc(S(=O)(=O)Nc2nc3ccccc3nc2Nc2ccc3nsnc3c2)cc1, the Kd was > 30 µM (inactive). With Cc1cc(-c2cc(O)ccc2Cl)cc2nnc(Nc3ccc(OCCN4CCCC4)cc3)nc12 the Kd was > 30 µM (inactive). With CCN1CCN(Cc2ccc(-c3cc4c(N[C@H](C)c5ccccc5)ncnc4[nH]3)cc2)CC1 [AEE-788] the Kd was > 30 µM (inactive).

Each compound was assayed against Mitogen-activated protein kinase kinase kinase 20 (Homo sapiens, UniProt Q9NYL2). Conditions: not given.
Chain of Mitogen-activated protein kinase kinase kinase 20 (Q9NYL2 whole entry): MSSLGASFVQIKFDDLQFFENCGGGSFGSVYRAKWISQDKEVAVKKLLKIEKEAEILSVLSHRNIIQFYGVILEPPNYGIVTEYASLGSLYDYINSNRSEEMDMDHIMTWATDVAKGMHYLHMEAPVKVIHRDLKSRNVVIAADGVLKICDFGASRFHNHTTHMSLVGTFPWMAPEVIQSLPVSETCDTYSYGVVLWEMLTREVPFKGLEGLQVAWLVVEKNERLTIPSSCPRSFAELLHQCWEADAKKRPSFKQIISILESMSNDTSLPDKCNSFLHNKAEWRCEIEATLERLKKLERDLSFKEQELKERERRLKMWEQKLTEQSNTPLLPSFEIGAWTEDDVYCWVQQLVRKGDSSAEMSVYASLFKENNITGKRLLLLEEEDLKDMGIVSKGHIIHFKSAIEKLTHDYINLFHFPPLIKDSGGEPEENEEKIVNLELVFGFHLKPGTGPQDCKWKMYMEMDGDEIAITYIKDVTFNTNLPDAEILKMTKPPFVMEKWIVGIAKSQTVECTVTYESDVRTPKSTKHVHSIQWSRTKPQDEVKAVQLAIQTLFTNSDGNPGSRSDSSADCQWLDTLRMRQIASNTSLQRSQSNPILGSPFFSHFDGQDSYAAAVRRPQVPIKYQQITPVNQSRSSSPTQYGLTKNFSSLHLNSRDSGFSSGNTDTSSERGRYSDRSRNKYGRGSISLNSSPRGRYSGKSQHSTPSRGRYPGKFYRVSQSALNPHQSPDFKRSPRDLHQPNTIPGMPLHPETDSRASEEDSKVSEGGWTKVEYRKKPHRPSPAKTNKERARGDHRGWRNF
For N[C@@H]1CCCN(c2c(/C=C3\SC(=O)NC3=O)cccc2-c2ccccc2)C1, the Kd was > 30 µM (inactive). For Cc1ccc(S(=O)(=O)Nc2nc3ccccc3nc2Nc2ccc3nsnc3c2)cc1, the Kd was > 30 µM (inactive). For Cc1cc(-c2cc(O)ccc2Cl)cc2nnc(Nc3ccc(OCCN4CCCC4)cc3)nc12, the Kd was > 30 µM (inactive). In the case of CCN1CCN(Cc2ccc(-c3cc4c(N[C@H](C)c5ccccc5)ncnc4[nH]3)cc2)CC1 [AEE-788], the Kd is reported as 13.6 µM (active).

The compounds below were run against U5 small nuclear ribonucleoprotein 200 kDa helicase (Homo sapiens, UniProt O75643). Conditions: not given.
Chain of U5 small nuclear ribonucleoprotein 200 kDa helicase (O75643 whole entry): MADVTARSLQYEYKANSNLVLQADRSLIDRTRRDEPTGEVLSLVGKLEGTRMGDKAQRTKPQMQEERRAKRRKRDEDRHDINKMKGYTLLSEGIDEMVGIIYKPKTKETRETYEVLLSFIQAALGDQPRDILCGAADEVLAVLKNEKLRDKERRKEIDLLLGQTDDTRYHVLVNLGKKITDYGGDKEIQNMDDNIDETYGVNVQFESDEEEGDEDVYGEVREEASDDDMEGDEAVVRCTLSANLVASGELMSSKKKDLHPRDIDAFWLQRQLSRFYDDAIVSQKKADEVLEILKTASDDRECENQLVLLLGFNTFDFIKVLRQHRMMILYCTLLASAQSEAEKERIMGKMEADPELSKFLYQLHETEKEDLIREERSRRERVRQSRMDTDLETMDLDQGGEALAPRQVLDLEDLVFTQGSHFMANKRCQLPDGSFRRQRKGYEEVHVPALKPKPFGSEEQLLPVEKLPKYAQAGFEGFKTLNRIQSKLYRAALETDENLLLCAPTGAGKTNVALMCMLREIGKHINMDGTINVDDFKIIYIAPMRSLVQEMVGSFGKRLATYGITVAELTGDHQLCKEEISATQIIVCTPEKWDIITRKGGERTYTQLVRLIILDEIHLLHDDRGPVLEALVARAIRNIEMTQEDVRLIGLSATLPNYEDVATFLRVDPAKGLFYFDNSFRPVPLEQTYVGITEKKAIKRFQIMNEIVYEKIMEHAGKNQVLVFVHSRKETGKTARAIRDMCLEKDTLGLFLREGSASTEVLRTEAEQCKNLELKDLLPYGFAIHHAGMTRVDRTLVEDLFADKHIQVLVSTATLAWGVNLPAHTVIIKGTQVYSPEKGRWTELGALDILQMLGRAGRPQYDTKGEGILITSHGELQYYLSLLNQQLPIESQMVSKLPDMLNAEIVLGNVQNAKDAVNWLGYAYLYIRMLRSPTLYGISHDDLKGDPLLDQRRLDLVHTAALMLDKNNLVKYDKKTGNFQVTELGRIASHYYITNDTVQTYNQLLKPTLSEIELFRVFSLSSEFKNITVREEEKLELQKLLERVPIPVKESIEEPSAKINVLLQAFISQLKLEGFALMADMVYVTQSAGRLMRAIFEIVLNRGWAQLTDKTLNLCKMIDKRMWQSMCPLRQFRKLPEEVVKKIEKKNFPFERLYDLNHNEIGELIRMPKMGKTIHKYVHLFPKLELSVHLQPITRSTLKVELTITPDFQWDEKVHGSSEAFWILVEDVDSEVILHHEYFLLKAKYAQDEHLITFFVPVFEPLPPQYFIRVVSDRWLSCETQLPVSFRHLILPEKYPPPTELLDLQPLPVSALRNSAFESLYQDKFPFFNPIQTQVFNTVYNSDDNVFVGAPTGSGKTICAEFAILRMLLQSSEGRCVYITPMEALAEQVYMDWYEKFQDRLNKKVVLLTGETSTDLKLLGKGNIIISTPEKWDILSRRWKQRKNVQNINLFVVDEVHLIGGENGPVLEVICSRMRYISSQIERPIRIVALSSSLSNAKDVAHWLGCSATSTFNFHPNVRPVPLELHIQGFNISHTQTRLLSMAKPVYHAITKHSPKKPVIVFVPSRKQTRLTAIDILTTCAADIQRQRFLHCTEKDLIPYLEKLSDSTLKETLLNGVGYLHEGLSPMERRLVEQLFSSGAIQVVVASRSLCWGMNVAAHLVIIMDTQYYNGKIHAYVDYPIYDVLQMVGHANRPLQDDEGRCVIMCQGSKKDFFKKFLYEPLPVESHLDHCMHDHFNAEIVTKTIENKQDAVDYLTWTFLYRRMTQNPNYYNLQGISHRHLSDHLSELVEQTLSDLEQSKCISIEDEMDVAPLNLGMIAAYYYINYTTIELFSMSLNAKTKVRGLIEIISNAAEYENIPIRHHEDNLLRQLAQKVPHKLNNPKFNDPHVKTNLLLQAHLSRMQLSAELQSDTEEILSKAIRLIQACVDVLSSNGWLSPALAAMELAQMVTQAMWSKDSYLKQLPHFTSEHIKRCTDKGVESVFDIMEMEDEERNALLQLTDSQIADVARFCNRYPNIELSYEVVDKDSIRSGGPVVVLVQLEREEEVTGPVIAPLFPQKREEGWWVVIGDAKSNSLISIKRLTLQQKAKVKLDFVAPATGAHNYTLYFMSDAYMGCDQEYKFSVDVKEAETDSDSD
N[C@@H]1CCCN(c2c(/C=C3\SC(=O)NC3=O)cccc2-c2ccccc2)C1 was tested, and the Kd was > 30 µM (inactive). Cc1ccc(S(=O)(=O)Nc2nc3ccccc3nc2Nc2ccc3nsnc3c2)cc1 was tested, and the Kd was > 30 µM (inactive). In the case of Cc1cc(-c2cc(O)ccc2Cl)cc2nnc(Nc3ccc(OCCN4CCCC4)cc3)nc12, the Kd is reported as > 30 µM (inactive). With CCN1CCN(Cc2ccc(-c3cc4c(N[C@H](C)c5ccccc5)ncnc4[nH]3)cc2)CC1 [AEE-788] the Kd was > 30 µM (inactive).

These compounds were tested against RAC-gamma serine/threonine-protein kinase (Homo sapiens, UniProt Q9Y243). Conditions: not given.
N[C@@H]1CCCN(c2c(/C=C3\SC(=O)NC3=O)cccc2-c2ccccc2)C1 was tested, and the Kd was > 30 µM (inactive). Cc1ccc(S(=O)(=O)Nc2nc3ccccc3nc2Nc2ccc3nsnc3c2)cc1 was tested, and the Kd was > 30 µM (inactive). For Cc1cc(-c2cc(O)ccc2Cl)cc2nnc(Nc3ccc(OCCN4CCCC4)cc3)nc12, the Kd was > 30 µM (inactive). For CCN1CCN(Cc2ccc(-c3cc4c(N[C@H](C)c5ccccc5)ncnc4[nH]3)cc2)CC1 [AEE-788], the Kd was > 30 µM (inactive).
